Legend:
[1] = tested on: patients suffering from Alzheimer's disease; assay: Clinical trial of dimebon: EEG investigations; assay type: in vivo, human; conditions: any patients except one (observation 12: increase of focal Δ-waves, retardation of the rhythm)
Excerpt: In observations 2, 11 and 14 the weakly positive dynamics of the EEG was manifested in weaker outbursts during hyperventilation and normalization of the zonal differences.

NMDA receptor = assay: Anti-NMDA activity: prevention of convulsions and death caused by NMDA injected into the lateral ventricle of the brain; assay type: in vivo; conditions: mice; i.p. 40 minutes before NMDA 0.1 μg into the lateral ventricle; probit analysis
Protocol: The experiment was conducted in white non-inbred male mice of 20–24 g of weight. A solution of the test agent in 0.2 ml of 5% aqueous dimethylsulfoxide was injected intraperitoneally 40 minutes before the injection of NMDA into the lateral vehicle of the brain. For the mice that had been prepared beforehand for the experiment a skin flap on the head of each mouse was removed under ether anestesia and a hole was bored in the skull by a fine drill. NMDA (0.1 μg) in a volume of 1.4 μl was injected with a microsyringe. The microsyringe needle was immersed to a depth of 2.5 mm. After the operation, the wound was treated with a 2% novocaine solution. […] The accuracy of NMDA injection was monitored by injection of methylene blue. Two to 4 hours after the operation, the mice were used for a pharmacological experiment.
The animals inoculated with a saline solution were used as control.
Each dose of the agent was tested in a croup of 6–8 animals. The ED50 value (the dose of the agent preventing the development of convulsions and the death of 50% of the animals) was determined by a probit-analysis method (Litchfild J. T., Wicoxon F. J.—Pharmacol. Exp. Therap., 1949, v. 96, p. 99–114).

[2] = tested on: patients suffering from Alzheimer's disease; assay: Clinical trial of dimebon: clinical observations of the mental state; assay type: in vivo, human
Protocol: (§1) The test was carried out under the direct supervision by two of the inventors, namely E. E. Bukatina and V. Grigorieva, in 14 patients who agreed to take part in the tests, 13 of whom lived in a boarding house for senile persons and one patient lived with their family.
(§2) Dimebon in the form of tablets (comprising 10 mg of dimebon, 30 mg of lactose, 5 mg of magnesium stearate was prescribed for oral administration in a dose of 0.02 g three to times a day. The patients living in the boarding house received dimebon for 58 days. A patient (observation 14) who was under outpatient observation continued taking the agent for a month after the completion of the tests.
The test results reflected the condition of the patients at the time of the examination. Any changes in the metal state observed in the interval between the tests and disappearing by the moment of examination according to the scale were described in the section “Clinical Observations”.
The pattern of the dynamics of the mental states of the patients during the treatment with dimebon registered in clinical observations is presented in Table 17.

[3] = tested on: patients suffering from Alzheimer's disease; assay: Clinical trial of dimebon tablets, Hazegawa's scale (0 score = poorest result); assay type: in vivo, human
Protocol: as §1
Alzheimer's disease was diagnosed on the basis of criteria ICD-10 NINCDS ADRDA.
as §2
Before the treatment with dimebon, and at 4 and 8 weeks after treatment the patients were examined according to Hazegawa's scale and the inventors' scale (“Social and Clinical Psychiatry”, 1992, No.4, pp.29–37) which includes the following indexes: (1) orientation in locality, time, immediate surroundings and one's own personality; (2) orientation in space; (3) memory for the past; (4) memory for the present; (5) “life in the past”; (6) (a) articulation, (b) difficulty in finding words, and distortion of words; (c) naming of objects; (d) following instructions; (7) concentration (of attention); (8) an affective sphere; (a) high spirits, (b) low spirits; (9) delirium; (10) hearing hallucinations; (11) visual hallucinations; (12) senile or senile-like confusion (when motion anxiety is accompanied by the revival of the past experience); (13) irritability; (14) anxiety; (15) asthenia; (16) headaches; (17) dizziness; (18) tearfulness; (19) spontaneous activity; (20) elementary self-service; and (21 control of sphincters.
According to the Hazegawa's scale, the 0 score indicates the poorest result; on the contrary, according to the inventors' scale, the 0 score indicates the absence of a symptom 4 score indicates the greatest manifestation thereof. […] Before the therapy was started, the patients had been independently examined by two doctors who used the inventors' scale. The examination during the treatment was carried out by the doctors using both the scales. The evaluation according to all the inventors' scale points during all the tests and their variations during the treatment with dimebon are given in the Appendix.
Both absolute evaluations of the signs under investigation (the evaluation prior to treatment is a mean evaluation of the two examinations) and variations in them were analysed in the course of therapy. In doing so, only those changes that were beyond the range of evaluations obtained in two pre-treatment examinations were taken into consideration. […]

## Cc1ccc2c(c1)c1c(n2CCc2ccc(C)nc2)CCN(C)C1 [No. 10, 2,8-dimethyl-5-[2-(6-methyl-3-pyridyl)ethyl]-2,3,4,5-tetrahydro-1H-pyrido[4,3-b]indole]
[1]
  changes in the EEG during the course of treatment: No changes in the EEG
NMDA receptor
  ED50 (dose preventing the development of convulsions and the death of 50% of the animals): 42 ± 6 mg/kg
[2]; 14 patients
  number of patients who became more active (cheerfulness and freshness): 4 patients
  number of patients who complained of headaches much less frequently: 4 patients
  number of patients who slept better: 2 patients
  number of patients with a distinct antidepressive effect: 8 patients
  number of patients with a greater interest in what was happening around: 8 patients
  psychopatic-like and depressive manifestations, conclusion: definite positive effect
[2]; all 7 patients who suffered from them, during the first 2 weeks of therapy
  psychopathic-like symptoms (lack of restraint, touchiness, conflict making, evil-mindedness or aggressiveness): decreased significantly
[3]; mean of 7 patients with nonprofound dementia, after 4 weeks
  Evaluation according to Hazegawa's scale, M +/− m: 20.79 +/− 1.85
[3]; mean of 7 patients with nonprofound dementia, after 8 weeks
  Evaluation according to Hazegawa's scale, M +/− m: 23 +/− 1.17
[3]; mean of 14 patients, after 4 weeks
  Evaluation according to Hazegawa's scale, M +/− m: 14.68 +/− 1.87
[3]; mean of 14 patients, after 8 weeks
  Evaluation according to Hazegawa's scale, M +/− m: 15.68 +/− 2.39
